Measurements published in patent US20040102622A1, “Modulation of hepatocyte growth factor receptor expression” (Isis Pharmaceuticals Inc., priority 2002, published 2004).

System: human hepatocyte growth factor receptor mRNA

Substance | inhibition of human hepatocyte growth factor receptor expression
ISIS 209530: 2′-MOE gapmer, phosphorothioate backbone, sequence ttacaggatccacataggag (antisense TTACAGGATCCACATAGGAG; all phosphorothioate, sugars by position and methylation of C not given here; 2'-MOE gapmer) | at least 35%
ISIS 155099: 2′-MOE gapmer, phosphorothioate backbone, sequence caggtttttcccaacacctg (antisense CAGGTTTTTCCCAACACCTG; all phosphorothioate, sugars by position and methylation of C not given here; 2'-MOE gapmer) | at least 35%
ISIS 155119: 2′-MOE gapmer, phosphorothioate backbone, sequence aagtatattaaacacttcct (antisense AAGTATATTAAACACTTCCT; all phosphorothioate, sugars by position and methylation of C not given here; 2'-MOE gapmer) | at least 35%
ISIS 155111: 2′-MOE gapmer, phosphorothioate backbone, sequence gttcggcagaatctggcttg (antisense GTTCGGCAGAATCTGGCTTG; all phosphorothioate, sugars by position and methylation of C not given here; 2'-MOE gapmer) | at least 35%
ISIS 209525: 2′-MOE gapmer, phosphorothioate backbone, sequence ctggtccgtcaaaaacataa (antisense CTGGTCCGTCAAAAACATAA; all phosphorothioate, sugars by position and methylation of C not given here; 2'-MOE gapmer) | at least 35%
ISIS 209542: 2′-MOE gapmer, phosphorothioate backbone, sequence cttgcttccactaaaaatga (antisense CTTGCTTCCACTAAAAATGA; all phosphorothioate, sugars by position and methylation of C not given here; 2'-MOE gapmer) | at least 35%
ISIS 155116: 2′-MOE gapmer, phosphorothioate backbone, sequence aaatctttcatgatgattcc (antisense AAATCTTTCATGATGATTCC; all phosphorothioate, sugars by position and methylation of C not given here; 2'-MOE gapmer) | at least 35%
ISIS 209527: 2′-MOE gapmer, phosphorothioate backbone, sequence cgcttcacagcctgatgaat (antisense CGCTTCACAGCCTGATGAAT; all phosphorothioate, sugars by position and methylation of C not given here; 2'-MOE gapmer) | at least 35%
ISIS 209523: 2′-MOE gapmer, phosphorothioate backbone, sequence gggccttcattatgagaggt (antisense GGGCCTTCATTATGAGAGGT; all phosphorothioate, sugars by position and methylation of C not given here; 2'-MOE gapmer) | at least 35%
ISIS 209528: 2′-MOE gapmer, phosphorothioate backbone, sequence ttgggaaaaccttgtagatt (antisense TTGGGAAAACCTTGTAGATT; all phosphorothioate, sugars by position and methylation of C not given here; 2'-MOE gapmer) | at least 35%
ISIS 155101: 2′-MOE gapmer, phosphorothioate backbone, sequence ttcagccacaggaaaaaccc (antisense TTCAGCCACAGGAAAAACCC; all phosphorothioate, sugars by position and methylation of C not given here; 2'-MOE gapmer) | at least 35%
ISIS 209549: 2′-MOE gapmer, phosphorothioate backbone, sequence cctgagcattactatctctt (antisense CCTGAGCATTACTATCTCTT; all phosphorothioate, sugars by position and methylation of C not given here; 2'-MOE gapmer) | at least 35%
ISIS 209529: 2′-MOE gapmer, phosphorothioate backbone, sequence cccagccacatatggtcagc (antisense CCCAGCCACATATGGTCAGC; all phosphorothioate, sugars by position and methylation of C not given here; 2'-MOE gapmer) | at least 35%
ISIS 155129: 2′-MOE gapmer, phosphorothioate backbone, sequence gattgggtccgtaaaaatgc (antisense GATTGGGTCCGTAAAAATGC; all phosphorothioate, sugars by position and methylation of C not given here; 2'-MOE gapmer) | at least 35%
ISIS 155103: 2′-MOE gapmer, phosphorothioate backbone, sequence tgggaagctgatacttcata (antisense TGGGAAGCTGATACTTCATA; all phosphorothioate, sugars by position and methylation of C not given here; 2'-MOE gapmer) | at least 35%
ISIS 155126: 2′-MOE gapmer, phosphorothioate backbone, sequence ctgtgcatttcaatgtattc (antisense CTGTGCATTTCAATGTATTC; all phosphorothioate, sugars by position and methylation of C not given here; 2'-MOE gapmer) | at least 35%
ISIS 155121: 2′-MOE gapmer, phosphorothioate backbone, sequence tgaaaggactttggctccca (antisense TGAAAGGACTTTGGCTCCCA; all phosphorothioate, sugars by position and methylation of C not given here; 2'-MOE gapmer) | at least 35%
ISIS 209534: 2′-MOE gapmer, phosphorothioate backbone, sequence agcattacttcatataaggg (antisense AGCATTACTTCATATAAGGG; all phosphorothioate, sugars by position and methylation of C not given here; 2'-MOE gapmer) | at least 35%
ISIS 155098: 2′-MOE gapmer, phosphorothioate backbone, sequence tcagaagtgtcctattaaag (antisense TCAGAAGTGTCCTATTAAAG; all phosphorothioate, sugars by position and methylation of C not given here; 2'-MOE gapmer) | at least 35%
ISIS 155105: 2′-MOE gapmer, phosphorothioate backbone, sequence atcaaagtatttggaaagga (antisense ATCAAAGTATTTGGAAAGGA; all phosphorothioate, sugars by position and methylation of C not given here; 2'-MOE gapmer) | at least 35%
ISIS 155108: 2′-MOE gapmer, phosphorothioate backbone, sequence attctcgggacactaactga (antisense ATTCTCGGGACACTAACTGA; all phosphorothioate, sugars by position and methylation of C not given here; 2'-MOE gapmer) | at least 35%
ISIS 155125: 2′-MOE gapmer, phosphorothioate backbone, sequence ggaaactgatcttctggaaa (antisense GGAAACTGATCTTCTGGAAA; all phosphorothioate, sugars by position and methylation of C not given here; 2'-MOE gapmer) | at least 35%
ISIS 155107: 2′-MOE gapmer, phosphorothioate backbone, sequence tccgcggtgaagttgggaag (antisense TCCGCGGTGAAGTTGGGAAG; all phosphorothioate, sugars by position and methylation of C not given here; 2'-MOE gapmer) | at least 35%
ISIS 155097: 2′-MOE gapmer, phosphorothioate backbone, sequence cctcggtcagaaattgggaa (antisense CCTCGGTCAGAAATTGGGAA; all phosphorothioate, sugars by position and methylation of C not given here; 2'-MOE gapmer) | at least 35%
